Measured values from publication PMC9079742, “Branched copolymer-stabilised nanoemulsions as new candidate oral drug delivery systems” (RSC Advances, 2018).
pIC50: −log10 of the molar value. In brackets after ≈: the same amount, converted by molar mass.

Legend:
HIV-1 IIIB = experiment: Antiviral activity assay (MTT viability of infected MT4 cells); type: cell-based; conditions: Human immunodeficiency virus 1, 120 h, HIV-1 IIIB-infected MT4 cells, 5 days incubation, N = 4
From the text: The potential ability to enhance the oral permeability of the antiretroviral drugs LPV and EFV may lead to increased drug absorption and a subsequent decrease in oral dose required to treat HIV patients. Drug permeation through the gut model employed here provides no information about whether free drug or intact nanoemulsions have traversed the epithelium. The potential for nanoemulsions entering the systemic circulation after in vivo absorption necessitates assessment of antiviral activity of the ARV-containing droplets and this was undertaken using HIV-1 IIIB-infected MT4 cells. […] Activity against the virus was determined by using an MTT cell viability assay to assess the number of live cells as viral replication leads to cell death.
Fig. 4 Antiviral activity of aqueous (circles) and nanoemulsion (triangles) formulations containing (A) EFV; and (B) LPV after 5 days incubation with MT4 cells and HIV-1 IIIB. Viral kill was derived by using MTT assay to quantify the metabolic activity of the MT4 cells, using this a proxy of cellular viability. […] Data expressed as ± SEM, N = 4. […]
(§1) and immediately frozen at -40°C for subsequent batch analysis via HPLC. Sink conditions were determined as being satisfied when <10% of starting concentration had permeated. Papp was determined with the following equation: […]

Caco-2 monolayers = experiment: Caco-2 transcellular permeation model (transwell); type: in vitro ADME, human
Procedure: (§2) The apparent permeability (Papp) of the candidate drug-loaded nanoemulsions were determined using the Caco-2 cells after forming a confluent monolayer, with tight junctions between the cells (confirmed by TEER), on a porous transwell membrane; this is a widely-used model for oral absorption.[34] Within this assay, the cells polarise to present microvilli on the gut (apical; A) side of the cells,[35] reproducing the morphology and function of the small intestine. The blood (basolateral; B) side of the cells models the interface with the systemic circulation. […]
(§3) droplets were below 300 nm in diameter.
(§4) During the 2 minutes, the vial was […]
(§5) to achieve a creamy emulsion. […]
(§6) Caco-2 Transcellular Permeation Model
(§7) After this time, culture media was […]
as §1
(§8) Where A is the concentration in the sample, T is the time in seconds at which the sample was collected, V is the total volume of sample contained in the chamber being sampled, S is the initial starting concentration of the drug and 0.3 is the surface area in cm2 of the transwell insert on which the Caco-2 […]
(§9) High Performance Liquid Chromatography
(§10) 200 μL of sample (thawed from -40°C storage) was added to 1 ml of HPLC grade acetonitrile in a universal tube and vortexed for 30 seconds. The universal tubes where then centrifuged for 5 minutes at 4°C at 13,300 rpm, after which the supernatant was transferred to fresh glass tubes. These tubes were placed in a vacuum centrifuge drier and heated to 35°C to remove excess acetonitrile and dry down the sample to a pellet. Pellets were then re-suspended in 200 μL fresh 20% HPLC grade acetonitrile, 80% HPLC grade water, and transferred to 1.8 ml HPLC vials and sealed for HPLC analysis.
(§11) The mobile phase (C) consisted of 95% water and 5% acetonitrile, with 5mM final concentration of ammonium formate. The elution buffer (D) consisted of 90% acetonitrile and 10% water with no ammonium formate. A calibration curve was produced using a 1:2 dilution from 20,000 ng/ml to 39 ng/ml, with separate quality control samples at 600 ng/ml, 3000 ng/ml and 15,000 ng/ml. The initial starting conditions of each run were 100% C, changing to 92% D / 8% C after 30 seconds, holding at this percentage for 5 minutes before raising to 100% D for 1 minute. The final 2 minutes of the run returned the column to 100% of C, ready for the injection of the next sample. The EFV was eluted at around 4.3 minutes into the run. The lower limit of quantification was 78 ng/mL, with intraday variability <20% and inter day variability <15%. […]
(§12) Plates were incubated for 5 days at 37°C and 5%
(§13) CO2. Activity of both aqueous and nanoformulations against HIV-1 IIIB was determined by quantifying the amount of live cells in each condition by means of an MTT cell viability assay. Concentrations of […]
(§14) was due solely to HIV infection.

[1] = Caco-2 transcellular permeation model (transwell); type: in vitro ADME, human; conditions: human, Caco-2; for Papp A→B at 2 h, 10 μM / Papp B→A at 2 h, 10 μM: aq/DMSO solution or castor oil nanoemulsion, N=4
Procedure: as §2, §3, §4, §5, §6, §7, §1, §8, §9, §10, §11, §12, §13, §14

MTT cytotoxicity assay = type: cell-based; conditions: human, Caco-2 cells, aqueous/DMSO solution
Procedure: The inherent cytotoxicity of the branched copolymer was evaluated using the CellTiterGlo® ATP assay whilst the stabilised nanoemulsions were studied using a 3-(4,5-dimethylthiazol-2-yl)-2,5-diphenyltetrazolium bromide (MTT) assay which employs the reduction of MTT to formazan to establish changes in mitochondrial enzyme activity (Fig. S5 ^†).
Cellular Cytotoxicity Assay
Approximately 100,000 cells per 100 L were seeded per well in a 96 well tissue culture plate, leaving
24 hours for cells to adhere to the plate. After this 24-hour period, media was aspirated from all wells
and replaced with fresh complete culture media containing appropriate sample concentrations. A
maximal drug concentration of 10 μM was used, decreasing in a 1:1 dilution series. For blank emulsion
samples were an equivalent volume of nanoemulsion was used to prepare the sample, such that the
volume of nanoemulsion was the same as those in the drug loaded nanoemulsion samples. Plates
were left for between 1 and 5 days, after which time 20 L of 5 mg/mL MTT reagent (3-(4,5-
dimethylthiazol-2-yl)-2,5-diphenyltetrazolium bromide) was added to every well and left for 2 hours. […]
formazan crystals. Plates were then read on a Tecan GENios plate reader (Tecan Group, Manndorf,
Switzerland) reader set to absorbance mode, with wavelength at 560 nm.

[2] = Drug solubility in natural oils; type: physicochemical; conditions: oil or lipid

## O=C1Nc2ccc(Cl)cc2[C@@](C#CC2CC2)(C(F)(F)F)O1 [EFV, efavirenz]
HIV-1 IIIB
  pIC50: ~5.90
Caco-2 monolayers; Caco-2
  Difference in permeation, emulsion form versus aqueous DMSO control: very limited difference
[1]
  efflux ratio at 1 h: 3.98
  efflux ratio at 2 h: 3.11
  Papp A→B at 2 h, 10 μM: 8.21 ×10⁻⁶ cm/s
  Papp B→A at 2 h, 10 μM: 25.5 ×10⁻⁶ cm/s
MTT cytotoxicity assay
  CC50: 55 µM
[2]; in castor oil
  solubility: ≥ 50 mg/mL
[2]; in peanut oil
  solubility: ≥ 50 mg/mL
[2]; in soybean oil
  solubility: ≥ 50 mg/mL

## Cc1cccc(C)c1OCC(=O)N[C@@H](Cc1ccccc1)[C@@H](O)C[C@H](Cc1ccccc1)NC(=O)[C@H](C(C)C)N1CCCNC1=O [LPV, lopinavir]
HIV-1 IIIB
  pIC50: 6.34
Caco-2 monolayers; human, Caco-2, 2 h, 10 μM
  Permeation in emulsion form relative to control within aqueous DMSO vehicle: approximately 10 fold
[1]
  efflux ratio at 1 h: 1.11
  efflux ratio at 2 h: 4.78
  Papp A→B at 2 h, 10 μM: 2.7 ×10⁻⁶ cm/s
  Papp B→A at 2 h, 10 μM: 12.9 ×10⁻⁶ cm/s
[2]; in castor oil
  solubility: ~25 mg/mL (≈ 39.8 mM)
[2]; in peanut oil
  solubility: < 12 mg/mL
[2]; in soybean oil
  solubility: < 12 mg/mL
